Experimental findings from patent US7049311B1, “Pyrrolbenzodiazepines” (Spirogen Limited, priority 1998, dated 2006) are described below.

The test system of one experiment is CH1cisR. Nature of the experiment: Ovarian carcinoma cytotoxicity assay. The experiment is classed as cell-based. The procedure: (§1) Compounds of the invention (and Anthramycin as a comparison) were evaluated for their cytotoxic activity in ovarian cell lines by Dr Lloyd R. Kelland's group at The Institute of Cancer Research, Sutton, UK. The five cell lines investigated were SKOV-3, A2780/A2780cisR and CH1/CH1cisR (cis R denotes that the cell line is resistant to cisplatin).
(§2) Single viable cells were seeded in growth medium (160 μL) in […] microtitre plates and allowed to attach overnight. […] After 96 hours, the medium was removed and the remaining cells fixed by exposure to 10% trichloroacetic acid on ice for 30 minutes. The wells were then washed 3-4 times with tap water, air dried overnight and treated with 100 μL of sulphorhodamine B (0.4%) dissolved in 1% acetic acid. Staining was allowed to continue for 10-15 minutes, then the wells were washed 3-4 times with 1% acetic acid, air dried and then added to Tris base (100 μL of 10 mM). Plates were then shaken and absorbance readings at 540 nm were determined using a plate reader. By using the Quattro-Pro software package, the IC50 values were calculated from plots of concentration versus percentage absorbance (compared with 8 untreated wells).

In a further experiment the test system is CH1. Description: Ovarian carcinoma cytotoxicity assay. The class given is cell-based. The procedure:
as §1, §2

In the next experiment the test system is SKOV-3. Nature of the experiment: Ovarian carcinoma cytotoxicity assay. The class given is cell-based. The procedure: as §1, §2
A further experiment deals with A2780. Description: Ovarian carcinoma cytotoxicity assay. The experiment is classed as cell-based, human. The procedure:
as §1, §2

A further experiment has as its system A2780cisR. Description: Ovarian carcinoma cytotoxicity assay. The class given is cell-based, human. How it is done: as §1, §2
For another experiment, the system named is calf thymus DNA. Nature of the experiment: DNA helix melting temperature assay. The experiment is classed as binding. As to conditions: [PBD]:[DNA] ratio of 1:5, calf thymus DNA. How it is done:
The first assay, which is described in G. B. Jones, et al., Anti-Cancer Drug Des., 1990, 5, 249, which is incorporated herein by reference, determines the effect of the test compound on the helix melting temperature of DNA. This assay is designed to give an indication of the strength and extent of cross-linking of the DNA strands by the test compound (i.e. a measure of the stabilisation of the DNA upon ligand binding).
The melting temperature was determined for a 1:5 molar ratio of [ligand] [DNA], where the calf thymus DNA concentration is […] in aqueous sodium phosphate buffer (10 mM sodium phosphate+1 mM EDTA, pH 7.00±0.01). For calf thymus DNA at pH 7.00±0.01, the melting temperature is 67.83±0.06° C. (mean value from 30 separate determinations).

[1] abbreviates: Homo sapiens, CH1cisR, 96 h, read-out: IC50 CH1cisR, cisplatin-resistant, 96 hours, sulphorhodamine B.
Setting [2] is: Homo sapiens, CH1, 96 h, read-out: IC50 CH1, 96 hours, sulphorhodamine B.
The mark [3] stands for this setting: Homo sapiens, SK-OV-3, 96 h, read-out: IC50 Skov3, 96 hours, sulphorhodamine B.
Setting [4] is: Homo sapiens, A2780, 96 h, read-out: IC50 A2780, 96 hours, sulphorhodamine B.
[5] abbreviates: Homo sapiens, A2780cisR, 96 h, read-out: IC50 A2780cisR, cisplatin-resistant, 96 hours, sulphorhodamine B.

The structures appear in SMILES notation. Like-named read-outs stand apart in the source and are kept apart here.

By IC50 is commonly meant the concentration needed to halve the response being measured. As to `COc1cc2c(cc1OCCC(=O)N1CCCCC1)N=C[C@@H]1CCCN1C2=O` [UP2006 (163)], the IC50 with CH1cisR (setting [1]) came out at 7.9 µM; in the experiment on CH1 (setting [2]), 4.9 µM; in the experiment with SKOV-3 (setting [3]) it was 23.5 µM; in the experiment with A2780 (setting [4]), 3.2 µM; in the experiment with A2780cisR (setting [5]) it was 14.5 µM.
Regarding `C/C=C1\C[C@H]2C=Nc3cc(O)c(OC)cc3C(=O)N2C1` [Tomamycin, tomaymycin], the “Induced ΔTa after incubation at 37° C. for 0 h” value in the experiment on calf thymus DNA (pH 7.00, 0 h) was found to be 0.97 °C. The “Induced ΔTa after incubation at 37° C. for 4 h” value in the experiment on calf thymus DNA (pH 7.00, 4 h) came to 2.38 °C. Besides, in the experiment with calf thymus DNA (pH 7.00, 18 h), the “Induced ΔTa after incubation at 37° C. for 18 h” value is 2.56 °C.
Consider `COc1cc2c(cc1OCCCNC(=O)OCC1c3ccccc3-c3ccccc31)N=C[C@@H]1CCCN1C2=O` [UP2088 (205), (11aS) 8-(N-9-fluorenylmethoxycarbonyl)aminopropyloxy-7-methoxy-1,2,3,11a-tetrahydro-5H-pyrrolo[2,1-c][1,4]benzodiazepin-5-one], for which the IC50 with CH1cisR (cisplatin-resistant, 96 hours, sulphorhodamine B, read-out: IC50 CH1cisR) was 16 µM; in the experiment on CH1 (96 hours, sulphorhodamine B, read-out: IC50 CH1), 12 µM; in the experiment with SKOV-3 (96 hours, sulphorhodamine B, read-out: IC50 Skov3), 14 µM; in the experiment with A2780 (96 hours, sulphorhodamine B, read-out: IC50 A2780), 11 µM; in the experiment on A2780cisR (cisplatin-resistant, 96 hours, sulphorhodamine B, read-out: IC50 A2780cisR), 8.5 µM.
On to `COc1cc2c(cc1OC)C(=O)N1C=C(c3ccccc3)C[C@H]1C=N2` [UP2095 (181), (11aS)-1,11a-dihydro-7,8-dimethoxy-2-phenyl-5H-pyrrolo[2,1-c][1,4]benzodiazepin-5-one], for which the IC50 in the experiment on CH1cisR (setting [1]), in the experiment with CH1 (setting [2]), in the experiment with SKOV-3 (setting [3]), in the experiment with A2780 (setting [4]) and in the experiment on A2780cisR (setting [5]) was less than 0.05 µM throughout.
Turning to `C/C=C1\C[C@H]2C=Nc3cc(OCc4ccccc4)c(OC)cc3C(=O)N2C1` [UP2100 (207)], the IC50 with CH1cisR (setting [1]) was less than 0.05 µM; in the experiment with CH1 (setting [2]), less than 0.05 µM; in the experiment on SKOV-3 (setting [3]), 0.081 µM; in the experiment on A2780 (setting [4]), less than 0.05 µM; in the experiment with A2780cisR (setting [5]), 0.066 µM.
For the molecule `Cc1ccc2c(c1O)NC(O)C1CC(/C=C/C(N)=O)=CN1C2=O` (stereo not drawn) [Anthramycin, anthramycin, reference compound], the IC50 came out at 0.05 µM with CH1cisR (setting [1]); 0.062 µM in the experiment on CH1 (setting [2]); 0.16 µM in the experiment with SKOV-3 (setting [3]); 0.155 µM with A2780 (setting [4]); 0.16 µM with A2780cisR (setting [5]).
`COc1cccc2c1N=C[C@@H]1CCCN1C2=O` [UP2024 (101), (11aS)-9-methoxy-1,2,3,11a-tetrahydro-5H-pyrrolo[2,1-c][1,4]benzodiazepin-5-one]: the IC50 was found to be 1.25 µM in the experiment on CH1cisR (setting [1]); 1.45 µM in the experiment with CH1 (setting [2]); 2.35 µM in the experiment on SKOV-3 (setting [3]); 1.4 µM in the experiment with A2780 (setting [4]); 1.8 µM in the experiment with A2780cisR (setting [5]).
As to `COc1cc2c(c(OC)c1OCc1ccccc1)N=C[C@@H]1CCCN1C2=O` [UP2022 (143), 8-Benzyloxy-7,9-dimethoxy-1,2,3,11a-tetrahydropyrrolo[2,1-c][1,4]benzodiazepin-5-one], the IC50 was determined as 11 µM in the experiment with CH1cisR (setting [1]), 14 µM with CH1 (setting [2]), 33 µM with SKOV-3 (setting [3]) and 16.5 µM in the experiment on A2780cisR (setting [5]).
Turning to `COc1cc2c(c(OC)c1O)N=CC1CC(=O)CN1C2` (stereo not drawn) [UP2021 (130), 7,9-dimethoxy-8-Hydroxy-1,2,3,11a-tetrahydropyrrolo[2,1-c][1,4]benzodiazepin-2-one], the IC50 in the experiment with CH1cisR (setting [1]) was 47 µM; with CH1 (setting [2]) it was 51 µM; in the experiment with SKOV-3 (setting [3]), greater than 100 µM; in the experiment on A2780 (setting [4]), greater than 100 µM; in the experiment on A2780cisR (setting [5]), greater than 100 µM.
Take `COc1cc2c(cc1OCc1ccccc1)N=C[C@@H]1CC(CC#N)=CN1C2=O` [UP2074 (10)]: the 50% inhibitory concentration (IC50) in the experiment on CH1cisR (setting [1]) turned out to be 0.27 µM; in the experiment on CH1 (setting [2]), 0.105 µM; in the experiment with SKOV-3 (setting [3]), 0.52 µM; with A2780 (setting [4]) it was 0.155 µM; with A2780cisR (setting [5]), 0.43 µM.
On to `COC(=O)CC1=CN2C(=O)c3cc(OC)c(OCCCOc4cc5c(cc4OC)C(=O)N4C=C(CC(=O)OC)C[C@H]4C=N5)cc3N=C[C@@H]2C1` [UP2053 (56)], for which the IC50 in the experiment on CH1cisR (setting [1]) was 0.011 µM; in the experiment with CH1 (setting [2]) it was 0.0115 µM; in the experiment on SKOV-3 (setting [3]) it was 0.1 µM; in the experiment with A2780 (setting [4]), 0.0054 µM; in the experiment with A2780cisR (setting [5]) it was 0.058 µM.
The like results for `COc1cc2c(c(OC)c1OCCCOc1c(OC)cc3c(c1OC)N=C[C@@H]1CCCN1C3=O)N=C[C@@H]1CCCN1C2=O` [UP2020 (90)] were, in that order, 2.8 µM, 1.7 µM, 1.6 µM, 10 µM and 7.2 µM.
Take `C=CC1=CN2C(=O)c3cc(OC)c(OC)cc3N=C[C@@H]2C1` [UP2089 (177), (11aS)-1,11a-dihydro-7,8-dimethoxy-2-ethenyl-5H-pyrrolo[2,1-c][1,4]benzodiazepin-5-one]: the concentration for half-maximal inhibition (IC50) was 0.0023 µM in the experiment with CH1cisR (setting [1]); less than 0.0025 µM in the experiment on CH1 (setting [2]); 0.0054 µM in the experiment on SKOV-3 (setting [3]); 0.0022 µM in the experiment on A2780 (setting [4]); 0.0042 µM with A2780cisR (setting [5]).
`COc1cc2c(cc1OCCC(=O)N1CCc3ccccc31)N=C[C@@H]1CCCN1C2=O` [UP2007 (165), 1, (2,3-dihydro-1H-indolyl)-3-(7-methoxy-5-oxy(11as)-2,3,5,11a-tetrahydro-1H-benzo[e]pyrrolo[1,2-a][1,4]diazepin-8-yloxy)-1-propanone]: the IC50 amounted to 3 µM in the experiment on CH1cisR (read-out: IC50 CH1cisR, cisplatin-resistant, 96 hours, sulphorhodamine B); 1.5 µM with CH1 (read-out: IC50 CH1, 96 hours, sulphorhodamine B); 5.8 µM in the experiment with SKOV-3 (read-out: IC50 Skov3, 96 hours, sulphorhodamine B); 1.55 µM in the experiment on A2780 (read-out: IC50 A2780, 96 hours, sulphorhodamine B); 4.9 µM with A2780cisR (read-out: IC50 A2780cisR, cisplatin-resistant, 96 hours, sulphorhodamine B).
For `COc1cc2c(c(OC)c1OC)N=C[C@@H]1CCCN1C2=O` [UP2086 (120), 7,8,9-Trimethoxy-1,2,3,11a-tetrahydro-5H-pyrrolo[2,1-c][1,4]benzodiazepin-5-one], the IC50 in the experiment on CH1cisR (setting [1]) stood at 2.2 µM; in the experiment with CH1 (setting [2]), 1.6 µM; in the experiment with SKOV-3 (setting [3]), 2.5 µM; in the experiment with A2780 (setting [4]), 0.84 µM; in the experiment on A2780cisR (setting [5]) it was 0.45 µM.
For the molecule `COc1ccc(C2=CN3C(=O)c4cc(OC)c(OC)cc4N=C[C@@H]3C2)cc1` [UP2092 (179), (11aS)-1,11a-dihydro-7,8-dimethoxy-2-(4-methoxyphenyl)-5H-pyrrolo[2,1-c][1,4]benzodiazepin-5-one], the half-inhibitory concentration (IC50) in the experiment with CH1cisR (setting [1]) came out at 0.0082 µM; in the experiment with CH1 (setting [2]), 0.0016 µM; with SKOV-3 (setting [3]) it was 0.0098 µM; with A2780 (setting [4]), 0.004 µM; in the experiment on A2780cisR (setting [5]), 0.007 µM.
In the case of `COc1cc2c(cc1OC)C(=O)N1CCC[C@H]1C=N2` [UP2025 (106), (11aS)-7,8-dimethoxy-1,2,3,11a-tetrahydro-5H-pyrrolo [2,1-c][1,4]benzodiazepin-5-one], the half-inhibitory concentration (IC50) was 0.11 µM in the experiment on CH1cisR (setting [1]), 0.082 µM in the experiment on CH1 (setting [2]), 1.7 µM with SKOV-3 (setting [3]) and 0.064 µM in the experiment on A2780 (setting [4]).
